This is an account of results in patent publication US8247412B2, “Urea derivatives methods for their manufacture and uses thereof” (Galapagos Sasu, priority 2005, dated 2012).

In assay [1] the test system is serum level of PTH (1-34+1-84). In words: PTH measurement on intact rats (serum PTH after oral administration). The note with it: intact male rats. It is filed as in vivo, rats (Sprague-Dawley).
In assay [2] the test system is serum level of PTH (1-34+1-84). In words: Rats with chronic renal failure (5/6 nephrectomy), serum PTH after oral administration. It is filed as in vivo, rats (Sprague-Dawley). The procedure:
II—Rats with Chronic Renal Failure • Chronic renal failure (CRF) was induced in male rats (220-250 g, Sprague-Dawley, CERJ) by ablation of ⅚ of the total renal mass. • After anaesthesia (Imalgene 1000), the rats were subjected to exeresis of the right kidney and ablation of both ends of the left kidney, representing approximately ⅔ of the organ). • The incision was cauterised by application of dry ice. […] The sera were frozen at −20° C. • After thawing, the serum level of PTH (1-34+1-84) was measured by a radioimmunology test (IRMA kit, rat, Immutopics).

Where [3] appears, read: Rattus norvegicus, 0.5 h, 10 mg/kg, 30 min, read-out: % PTH reduction at 30 min relative to the untreated group.

Each structure is given as a SMILES string. Counter-ions that a name gives are not always drawn.

For the molecule `COc1ccc(-c2csc(NC(=O)N(CCC(c3ccccc3)c3ccccc3)CCN3CCOCC3)n2)cc1` [51 a], in assay [1] (10 mg/kg, at 2 h), the “% PTH reduction at time t, relative to the untreated group” value was −78% at 2 h.
As for `O=C(Nc1nc(-c2ccc(Cl)cc2)cs1)N(CCC(c1ccccc1)c1ccccc1)CCN1CCOCC1` [Example 25, 3-[4-(4-chloro-phenyl)-thiazol-2-yl]-1-(3,3-diphenyl-propyl)-1-(2-morpholin-4-yl-ethyl)-urea dihydrochloride], the change in vivo at 10 mg/kg in assay [2] (setting [3]) is -74%.
Turning to `O=C(Nc1nc(-c2ccc(F)cc2)cs1)N(CCC(c1ccccc1)c1ccccc1)CCN1CCOCC1` [54 a], the “% PTH reduction at time t, relative to the untreated group” value in assay [1] (10 mg/kg, at 2 h) is on record as −78% at 2 h.
For `O=C(Nc1nc2ccccc2s1)N(CCC(c1ccccc1)c1ccccc1)CCN1CCOCC1` [Example 8, 3-benzothiazol-2-yl-1-(3,3-diphenyl-propyl)-1-(2-morpholin-4-yl-ethyl)-urea dihydrochloride], the “% PTH reduction at 2 h relative to the untreated group” value in assay [2] (10 mg/kg, 2 h) is reported as −90%. In assay [2] (setting [3]), the change in vivo at 10 mg/kg is -80%.
Turning to `O=C(Nc1nc(-c2ccc(N3CCCC3)cc2)cs1)N(CCC(c1ccccc1)c1ccccc1)CCN1CCOCC1` [Example 36, 1-(3,3-diphenyl-propyl)-1-(2-morpholin-4-yl-ethyl)-3-[4-(4-pyrrolidin-1-yl-phenyl)-thiazol-2-yl]-urea trihydrochloride], the change in vivo at 10 mg/kg in assay [2] (setting [3]) is -98%.
As to `Cc1ccc(-c2csc(NC(=O)N(CCC(c3ccccc3)c3ccccc3)CCN3CCOCC3)n2)o1` [Example 60, 1-(3,3-diphenyl-propyl)-3-[4-(5-methyl-furan-2-yl)-thiazol)-2-yl]-1-(2-morpholin-4-yl-ethyl)-urea dihydrochloride], the change in vivo at 10 mg/kg in assay [2] (setting [3]) is -87%.
Take `O=C(Nc1nc(-c2cccnc2)cs1)N(CCC(c1ccccc1)c1ccccc1)CCN1CCOCC1` [Example 47, 1-(3,3-diphenyl-propyl)-1-(2-morpholin-4-yl-ethyl)-3-(4-pyridin-3-yl-thiazol-2-yl)-urea trihydrochloride]: the change in vivo at 30 mg/kg in assay [2] (Rattus norvegicus, 0.5 h, 30 mg/kg, 30 min, read-out: % PTH reduction at 30 min relative to the untreated group) is -96%.
As to `Cc1ccc(-c2csc(NC(=O)N(CCC(c3ccccc3)c3ccccc3)CCN3CCOCC3)n2)cc1` [Example 28, 1-(3,3-diphenyl-propyl)-1-(2-morpholin-4-yl-ethyl)-3-(4-p-tolyl-thiazol-2-yl)-urea dihydrochloride], the change in vivo at 10 mg/kg in assay [2] (setting [3]) is -91%.
Still for that read-out and setting: for `CCOC(=O)c1cc(-c2csc(NC(=O)N(CCC(c3ccccc3)c3ccccc3)CCN3CCOCC3)n2)on1` [Example 31, 5-{2-[3-(3,3-diphenyl-propyl)-3-(2-morpholin-4-yl-ethyl)-ureido]-thiazol-4-yl}-isoxazole-3-carboxylic acid ethyl ester dihydrochloride] the value was -85%; for `N#Cc1ccc(-c2csc(NC(=O)N(CCC(c3ccccc3)c3ccccc3)CCN3CCOCC3)n2)cc1` [Example 44, 3-[4-(4-cyano-phenyl)-thiazol-2-yl]-1-(3,3-diphenyl-propyl)-1-(2-morpholin-4-yl-ethyl)-urea dihydrochloride], -88%.
Take `CS(=O)(=O)c1ccc(-c2csc(NC(=O)N(CCC(c3ccccc3)c3ccccc3)CCN3CCOCC3)n2)cc1` [40 a]: the “% PTH reduction at time t, relative to the untreated group” value in assay [1] (10 mg/kg, at 2 h) is given as −71% at 2 h.
Turning to `O=C(Nc1nc2ccc(Cl)cc2s1)N(CCC(c1ccccc1)c1ccccc1)CCN1CCOCC1` [Example 2, 3-(6-chloro-benzothiazol-2-yl)-1-(3,3-diphenyl-propyl)-1-(2-morpholin-4-yl-ethyl)-urea dihydrochloride], the “% PTH reduction at time t, relative to the untreated group” value in assay [1] (30 mg/kg, at 30 mn) is listed as −93% at 30 mn. For the same molecule, the change in vivo at 10 mg/kg in assay [2] (setting [3]) is -84%.
